The source of these data is ChEMBL document CHEMBL2396606, “Discovery of novel HCV inhibitors: synthesis and biological activity of 6-(indol-2-yl)pyridine-3-sulfonamides targeting hepatitis C virus NS4B” (Bioorg Med Chem Lett, 2013).

Common to all, as to assay type: ADME, organism-based
Series [1] in a line: Cmax in Sprague-Dawley rat at 10 mg/kg, po. The note with it: in vivo. More on the design: dose 10 mg/kg, route oral.
The nature of series [2]: AUC (0 to 6 hrs) in Sprague-Dawley rat at 10 mg/kg, po. Further details: time < 6 hr, dose 10 mg/kg, route oral. The note with it: plasma.
The nature of series [3]: Tmax in Sprague-Dawley rat at 10 mg/kg, po. The note with it: in vivo. More on the design: dose 10 mg/kg, route oral.
Series [4] can be described thus: AUC (0 to infinity) in Sprague-Dawley rat at 5 mg/kg, iv. More on the design: time infinity, dose 5 mg/kg, route intravenous. The note with it: plasma.
Series [5] can be described thus: Volume of distribution at steady state in Sprague-Dawley rat at 10 mg/kg, po and 5 mg/kg, iv. The note with it: in vivo, read-out: Vdss.
Series [6] in a line: Oral bioavailability in Sprague-Dawley rat at 10 mg/kg. The note with it: in vivo.
A short description of series [7]: AUC (0 to infinity) in Sprague-Dawley rat at 10 mg/kg, po. More on the design: time infinity, dose 10 mg/kg, route oral. The note with it: plasma.

`CC(C)NS(=O)(=O)c1ccc(-c2c(C#N)c3ccc(OC(F)F)cc3n2C2CCC2)nc1`: the Cmax (usually the maximum level reached in the sampled fluid or tissue) in series [1] turned out to be 53 ng/mL. In addition, the AUC(0-t) (commonly the area under the concentration-time curve up to a stated or last time point) at 6 h in series [2] came out at 0.579 µM·h. For the same compound, the Tmax – broadly, the time from dosing to the highest level – in series [3] came out at 2 h.
As to `N#Cc1c(-c2ccc(S(=O)(=O)NC(CF)CF)cn2)n(C2CCC2)c2cc(OC(F)F)ccc12`, the AUC(0-inf) (as a rule, total exposure, with the tail of the curve extrapolated) in series [4] came to 13 µM·h; in series [7], 16 µM·h. Further, in series [5], the Vd is 4.7 L/kg. Also, the Cmax in series [1] came to 348 ng/mL. Besides, the bioavailability (as a rule, the share of a dose that reaches the circulation, judged against a reference dose that is usually intravenous) in series [6] came to 62%. This compound also gave an AUC(0-t) at 6 h in series [2] of 3.42 µM·h. Further, in series [3], the Tmax stood at 3 h.
Take `N#Cc1c(-c2ccc(S(=O)(=O)NC(CF)CF)cn2)n(C2CCC2)c2cc(C3CC3)ccc12`: the highest level in series [1] (Cmax) was 759 ng/mL. Moreover, in series [2], the area under the curve AUC(0-t) at 6 h was determined as 6.2 µM·h. Also, the Tmax in series [3] was 2 h.
The like results for `CC(C)NS(=O)(=O)c1ccc(-c2c(C#N)c3ccc(C4CC4)cc3n2C2CCC2)nc1` were, in that order, 87 ng/mL, 0.964 µM·h and 2 h.
